From US12492210B2, “Tricyclic compounds and their use” (HUTCHISON MEDIPHARMA LIMITED, priority 2019, dated 2025)
pIC50: −log10 of the molar value.

Key:
[1] = system: p-RSK (Thr359) in colo205 cells; test: p-RSK (Thr359) Acumen Assay in Colo205; type: cell-based; settings: Homo sapiens, COLO 205, 1 hour compound incubation, read-out: Example 19 IC50
Method in brief: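 Colo205 cells (4000/well, seeded overnight in 10% FBS) were exposed 1 hour at 37° C to compound added from a 3–0.001 μM dilution series in 5% DMSO. Cells were then fixed, permeabilised and immunostained for p-RSK Thr359, with PI counterstain. Acumen cytometry gave the percentage of positive cells, normalised to untreated wells and 3 uM GDC0994 wells, for the IC50 fit.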

MAPK1(ERK2) enzyme = target: T1, MAPK1(ERK2) enzyme (Homo sapiens, UniProt P28482); test: Z-Lyte Kinase Assay of ERK2; type: biochemical; settings: read-out: Example 18 IC50
T1 construct: purchased Invitrogen PV3313
Method in brief: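 FRET-based Z-LYTE assay using ERK2 kinase with Ser/Thr3 peptide; compound tested at 0.00046–1 μM final in 2% DMSO. Kinase reaction ran 1 h at 25-30° C, followed by 1 h development. The coumarin/fluorescein emission ratio (445/520 nm) gave % phosphorylation, and IC50 was fitted from inhibition relative to uninhibited control.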

T1 sequence (P28482 whole entry): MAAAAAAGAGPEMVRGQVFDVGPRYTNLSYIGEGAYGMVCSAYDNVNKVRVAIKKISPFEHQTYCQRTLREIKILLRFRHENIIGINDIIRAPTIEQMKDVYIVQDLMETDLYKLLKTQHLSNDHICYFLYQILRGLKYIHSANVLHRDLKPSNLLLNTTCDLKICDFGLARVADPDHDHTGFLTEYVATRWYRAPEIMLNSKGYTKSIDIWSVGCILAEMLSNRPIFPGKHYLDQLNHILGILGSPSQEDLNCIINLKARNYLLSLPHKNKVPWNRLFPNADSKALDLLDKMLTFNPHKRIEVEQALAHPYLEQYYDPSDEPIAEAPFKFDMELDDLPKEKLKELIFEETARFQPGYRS

pIC50 [1] | pIC50 (MAPK1(ERK2) enzyme) | SMILES
< 7.00 | ≥ 8.30 | Cc1cc(Nc2ncc(C)c(-c3cc4n(c3)CCCn3c-4nnc3C3(C(F)(F)F)CCC3)n2)on1 [Compound 284]
≥ 7.00 | ≥ 8.30 | Cc1cnc(Nc2ccnn2C(F)F)cc1-c1cc2n(c1)CCCn1c-2nnc1C1(C(F)(F)F)CCC1 [Compound 263]
≥ 7.00 | 8.00 to 8.30 | Cn1nccc1Nc1cc(-c2cc3n(c2)CCCn2c-3nnc2N2CCCc3ccccc32)c(Cl)cn1 [Compound 54]
≥ 7.00 | ≥ 8.30 | Cn1nccc1Nc1nccc(-c2cc3n(c2)CCn2c(COc4ccccc4F)nnc2-3)n1 [Compound 3]
< 7.00 | 8.00 to 8.30 | Cc1cnc(Nc2ccnn2C)cc1-c1cc2n(c1)CCn1c-2nnc1C(F)(F)c1ccccc1F [Compound 68]
< 7.00 | ≥ 8.30 | Cn1nccc1Nc1cc(-c2cc3n(c2)CCCn2c-3nnc2C2(C(F)(F)F)CC2)c(Cl)cn1 [Compound 21]
≥ 7.00 | ≥ 8.30 | Cc1c(-c2ccnc(Nc3ccnn3C)n2)cn2c1-c1nnc(COc3ccccc3F)n1CCC2 [Compound 16]
< 7.00 | ≥ 8.30 | Cn1nccc1Nc1cc(-c2cc3n(c2)CC(F)(F)Cn2c(COC(F)(F)F)nnc2-3)c(Cl)cn1 [Compound 107]
≥ 7.00 | 8.00 to 8.30 | CO[C@H]1Cn2cc(-c3cc(Nc4ccnn4C)ncc3Cl)cc2-c2nnc(C3(C(F)(F)F)CCC3)n2C1 [Compound 165]
≥ 7.00 | < 8.00 | Cn1nccc1Nc1cc(-c2cc3n(c2)C[C@H](CF)n2c-3nnc2C(F)(F)c2ccccc2F)c(Cl)cn1 [Compound 190]
≥ 7.00 | ≥ 8.30 | CCC(F)(F)c1nnc2n1[C@@H](CF)Cn1cc(-c3cc(Nc4ccnn4C)ncc3Cl)cc1-2 [Compound 61]
≥ 7.00 | 8.00 to 8.30 | Cn1nccc1Nc1cc(-c2cc3n(c2)CC(C)(C)Cn2c-3nnc2C2(C(F)(F)F)CCC2)c(Cl)cn1 [Compound 159]
≥ 7.00 | ≥ 8.30 | Cc1cnc(Nc2ccnn2C)nc1-c1cn2c(n1)-c1nnc(C(F)(F)c3ccccc3Cl)n1[C@H](C)C2 [Compound 221]
≥ 7.00 | ≥ 8.30 | Cc1cnc(Nc2ccnn2C)cc1-c1cc2n(c1)C[C@H](CF)n1c-2nnc1C1(C(F)(F)F)CCC1 [Compound 82]
≥ 7.00 | ≥ 8.30 | Cc1cnc(Nc2ccnn2C)cc1-c1cc2n(c1)C[C@H](C(F)F)n1c-2nnc1C(F)(F)n1cc(Cl)cn1 [Compound 198]
< 7.00 | ≥ 8.30 | C[C@H]1Cn2c(nnc2C2(C(F)(F)F)CCC2)-c2cc(-c3cc(Nc4ccnn4C)ncc3Cl)cn21 [Compound 50]
≥ 7.00 | < 8.00 | Cc1cnc(Nc2ccnn2CCCO)nc1-c1cc2n(c1)C[C@H](C)n1c-2nnc1C(F)(F)c1ccccc1F [Compound 297]
≥ 7.00 | ≥ 8.30 | C[C@@H](CO)Nc1ncc(Cl)c(-c2cc3n(c2)CCCn2c-3nnc2C2(C(F)(F)F)CCC2)n1 [Compound 276]
